# Results published in patent publication US10894787B2, “Modulators of the GPR119 receptor and the treatment of disorders related thereto” (Arena Pharmaceuticals, Inc., priority 2010, dated 2021).
# What was measured:
# GPR119 receptor = biological target: T1, GPR119 receptor (Homo sapiens, UniProt Q8TDV5); test: HTRF assay for direct cAMP measurement in CHO-K1 cells stably expressing the GPR119 receptor; assay type: cell-based; details: CHO-K1 cells stably expressing GPR119; 1 h incubation at room temperature; read-out: EC50, HTRF cAMP assay
# T1 construct: expressed in transfected cells
# T1 sequence (Q8TDV5 2-335 limits assumed): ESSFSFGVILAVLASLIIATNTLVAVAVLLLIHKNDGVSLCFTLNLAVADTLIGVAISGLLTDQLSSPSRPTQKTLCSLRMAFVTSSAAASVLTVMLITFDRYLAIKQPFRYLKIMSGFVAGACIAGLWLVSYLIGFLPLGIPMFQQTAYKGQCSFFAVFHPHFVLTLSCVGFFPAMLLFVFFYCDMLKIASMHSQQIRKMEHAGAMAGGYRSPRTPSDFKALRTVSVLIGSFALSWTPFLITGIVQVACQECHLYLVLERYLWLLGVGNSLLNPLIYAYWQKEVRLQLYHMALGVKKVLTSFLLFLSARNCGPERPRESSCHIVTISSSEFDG
# Procedure: The GPR119 agonist, Compound 1, was evaluated in an HTRF® cAMP detection assay according to the manufacturer's instructions (Cisbio, cAMP Dynamic 2 Assay Kit; #62AM4PEJ) using CHO-K1 cells stably expressing the GPR119 receptor. Briefly, CHO-K1 cells were transduced with a lentiviral vector encoding the nucleotide sequence of GPR119 (NCBI mRNA and protein reference sequences: NM_178471.2 & NP_848566, (GPR119 has also been referred to as Glucose-Dependent Insulinotropic Receptor (GDIR)). The N-terminus of the GPR119 nucleotide sequence was modified to replace the first, methionine-coding codon with a nucleotide sequence coding for a standard, nine amino acid, hemagglutinin tag. Following transduction, cells expressing the GPR119 receptor were isolated and a single clone was isolated following standard dilution-cloning procedures. On the day of the assay, cultured CHO-GPR119 cells were harvested, suspended in assay buffer and plated into 384-well assay plates (PerkinElmer Proxiplate #6008280) at a density of 2,000 cells per well. A cAMP standard curve was included on each plate. Test compounds were solubilized in DMSO, serially diluted in DMSO and then diluted in assay buffer before adding to the cells. Test compounds were evaluated in triplicate, using 10-point, 5-fold serial dilutions starting at 10 μM. The final DMSO concentration in the assay was 0.5%. Compounds and cells were incubated for 1 h at room temperature and then detection reagents were added to each well (cAMP-D2 in cell lysis buffer, followed by europium cryptate-labeled anti-cAMP antibody). Plates were then incubated at room temperature for 1 h prior to reading. Time-resolved fluorescence measurements were collected on PerkinElmer Envision™ or BMG Pherastar™ microplate readers. The compound N-(2-fluoro-4-(methylsulfonyl)phenyl)-6-(4-(3-isopropyl-1,2,4-oxadiazol-5-yl)piperidin-1-yl)-5-nitropyrimidin-4-amine was used as a positive control in each runset while assay buffer containing 0.5% DMSO was used as the negative control.
# male diabetic ZDF rats = test: Oral glucose tolerance test (oGTT) in male diabetic ZDF rats; assay type: in vivo, rat; details: for Plasma Glucose Mean: N = 6; for % Inhibition of Glucose Excursion: AUC reduction relative to vehicle control, ZDF rats
# Procedure: Male ZDF rats were fasted for 18 h and randomly grouped (n=6) to receive a GPR119 agonist, (Compound 1), at 0.3, 3, 10, or 30 mg/kg (mg compound per kg body weight). The compound was delivered orally via a gavage needle (p.o., volume 4 mL/kg) 60 min prior to glucose bolus (3 g/kg) (time=−60 min in FIG. 1), with a separate group receiving vehicle (20% hydroxypropyl-beta-cyclodextrin) as control. At time 0 min the glucose bolus was administered. Levels of blood glucose were assessed using a glucometer (One-Touch Ultra™ LifeScan) at time −60 minute (prior to compound administration), at 0 min (at time when glucose bolus was given), and at 30, 60, 90, and 120 min post glucose bolus. Glucose excursion (AUC (area under the curve) reduction) in compound treated animals relative to vehicle control is shown in FIG. 2 and Table 2.
# incretin hormone GIP = test: In vivo incretin hormone GIP release, Total GIP ELISA on plasma; parameters: species or system mouse; details: blood sample after 45 min, male 129SVE mice
# Procedure: Male 129SVE mice (approximately 8-week old) were fasted for 18 h and randomly grouped (n=6) to receive a GPR119 agonist, (Compound 1), at an oral dose of 0.1, 0.3, 1, 3, 10, or 30 mpk (mg/kg body weight). Compounds were delivered orally via a gavage needle (p.o., volume 4 mL/kg), and after 45 min a blood sample was collected to determine plasma total GIP levels. A separate group received vehicle (PET: 80% PEG400, 10% ethanol, 10% Tween80) as control. Plasma GIP levels were determined using a Total GIP ELISA kit from Millipore.
structure (smiles),measurement,setting,value
"CN(C)C(=O)c1ccc(Nc2ncnc(N3CCC(c4nc(C(C)(C)F)no4)CC3)c2F)c(F)c1 [Compound 1, 3-fluoro-4-(5-fluoro-6-(4-(3-(2-fluoropropan-2-yl)-1,2,4-oxadiazol-5-yl)piperidin-1-yl)pyrimidin-4-ylamino)-N,N-dimethylbenzamide]",EC50,GPR119 receptor,23.4 nM
same,Plasma Glucose Mean,"male diabetic ZDF rats; 0.3 mg/kg p.o. 60 min prior to glucose bolus, time 0 min",89.7 mg/dL
same,Plasma Glucose Mean,"male diabetic ZDF rats; 0.3 mg/kg p.o., 30 min post glucose bolus",201.7 mg/dL
same,Plasma Glucose Mean,"male diabetic ZDF rats; 0.3 mg/kg p.o., 60 min post glucose bolus",192.2 mg/dL
same,Plasma Glucose Mean,"male diabetic ZDF rats; 0.3 mg/kg p.o., 90 min post glucose bolus",185.3 mg/dL
same,Plasma Glucose Mean,"male diabetic ZDF rats; 0.3 mg/kg p.o., 120 min post glucose bolus",154.8 mg/dL
same,% Inhibition of Glucose Excursion,male diabetic ZDF rats; 0.3 mg/kg p.o.,6.5%
same,Plasma Glucose Mean,"male diabetic ZDF rats; 0.3 mg/kg p.o., time -60 min (prior to compound administration)",106.3 mg/dL
same,Plasma Glucose Mean,"male diabetic ZDF rats; 3.0 mg/kg p.o. 60 min prior to glucose bolus, time 0 min",82.7 mg/dL
same,Plasma Glucose Mean,"male diabetic ZDF rats; 3.0 mg/kg p.o., 30 min post glucose bolus",184.5 mg/dL
same,Plasma Glucose Mean,"male diabetic ZDF rats; 3.0 mg/kg p.o., 60 min post glucose bolus",144.2 mg/dL
same,Plasma Glucose Mean,"male diabetic ZDF rats; 3.0 mg/kg p.o., 90 min post glucose bolus",151.2 mg/dL
same,Plasma Glucose Mean,"male diabetic ZDF rats; 3.0 mg/kg p.o., 120 min post glucose bolus",146.2 mg/dL
same,% Inhibition of Glucose Excursion,male diabetic ZDF rats; 3 mg/kg p.o.,47.0%
same,Plasma Glucose Mean,"male diabetic ZDF rats; 3.0 mg/kg p.o., time -60 min (prior to compound administration)",110.0 mg/dL
same,Plasma Glucose Mean,"male diabetic ZDF rats; 10.0 mg/kg p.o. 60 min prior to glucose bolus, time 0 min",76.0 mg/dL
same,Plasma Glucose Mean,"male diabetic ZDF rats; 10.0 mg/kg p.o., 30 min post glucose bolus",174.0 mg/dL
same,Plasma Glucose Mean,"male diabetic ZDF rats; 10.0 mg/kg p.o., 60 min post glucose bolus",135.8 mg/dL
same,Plasma Glucose Mean,"male diabetic ZDF rats; 10.0 mg/kg p.o., 90 min post glucose bolus",141.3 mg/dL
same,Plasma Glucose Mean,"male diabetic ZDF rats; 10.0 mg/kg p.o., 120 min post glucose bolus",132.5 mg/dL
same,% Inhibition of Glucose Excursion,male diabetic ZDF rats; 10 mg/kg p.o.,60.1%
same,Plasma Glucose Mean,"male diabetic ZDF rats; 10.0 mg/kg p.o., time -60 min (prior to compound administration)",108.7 mg/dL
same,Plasma Glucose Mean,"male diabetic ZDF rats; 30.0 mg/kg p.o. 60 min prior to glucose bolus, time 0 min",93.0 mg/dL
same,Plasma Glucose Mean,"male diabetic ZDF rats; 30.0 mg/kg p.o., 30 min post glucose bolus",197.0 mg/dL
same,Plasma Glucose Mean,"male diabetic ZDF rats; 30.0 mg/kg p.o., 60 min post glucose bolus",124.8 mg/dL
same,Plasma Glucose Mean,"male diabetic ZDF rats; 30.0 mg/kg p.o., 90 min post glucose bolus",135.8 mg/dL
same,Plasma Glucose Mean,"male diabetic ZDF rats; 30.0 mg/kg p.o., 120 min post glucose bolus",130.2 mg/dL
same,% Inhibition of Glucose Excursion,male diabetic ZDF rats; 30 mg/kg p.o.,52.1%
same,Plasma Glucose Mean,"male diabetic ZDF rats; 30.0 mg/kg p.o., time -60 min (prior to compound administration)",104.8 mg/dL
same,Effect on blood glucose after a challenge with glucose,"male diabetic ZDF rats; diabetic ZDF rats, 0.3-30 mg/kg p.o.",lowered blood glucose
same,"Total Plasma GIP in Mice, Total GIP",incretin hormone GIP; 0.1 mg/kg p.o.,60.92 pg/mL
same,"Total Plasma GIP in Mice, Total GIP",incretin hormone GIP; 0.3 mg/kg p.o.,68.21 pg/mL
same,"Total Plasma GIP in Mice, Total GIP",incretin hormone GIP; 1 mg/kg p.o.,183.8 pg/mL
same,"Total Plasma GIP in Mice, Total GIP",incretin hormone GIP; 3 mg/kg p.o.,318.5 pg/mL
same,"Total Plasma GIP in Mice, Total GIP",incretin hormone GIP; 10 mg/kg p.o.,444.8 pg/mL
same,"Total Plasma GIP in Mice, Total GIP",incretin hormone GIP; 30 mg/kg p.o.,695.0 pg/mL
